Reference: patent US20240269139A1, “COMPOUNDS FOR TARGETED PROTEIN DEGRADATION OF KINASES” (DANA-FARBER CANCER INSTITUTE, INC., priority 2020, published 2024)
Several values for one entry are separate records, joined by “and”; a condition that tells them apart may be missing. Identical values can stand only once. Like-named read-outs stand apart in the source and are kept apart here.

Assays:
Type in all cases: cell-based
[1] = biological target: protein kinases (human kinome) (Homo sapiens, UniProt Q8NI60)
Sequence of protein kinases (human kinome) (Homo sapiens, UniProt Q8NI60) (Q8NI60 163-647): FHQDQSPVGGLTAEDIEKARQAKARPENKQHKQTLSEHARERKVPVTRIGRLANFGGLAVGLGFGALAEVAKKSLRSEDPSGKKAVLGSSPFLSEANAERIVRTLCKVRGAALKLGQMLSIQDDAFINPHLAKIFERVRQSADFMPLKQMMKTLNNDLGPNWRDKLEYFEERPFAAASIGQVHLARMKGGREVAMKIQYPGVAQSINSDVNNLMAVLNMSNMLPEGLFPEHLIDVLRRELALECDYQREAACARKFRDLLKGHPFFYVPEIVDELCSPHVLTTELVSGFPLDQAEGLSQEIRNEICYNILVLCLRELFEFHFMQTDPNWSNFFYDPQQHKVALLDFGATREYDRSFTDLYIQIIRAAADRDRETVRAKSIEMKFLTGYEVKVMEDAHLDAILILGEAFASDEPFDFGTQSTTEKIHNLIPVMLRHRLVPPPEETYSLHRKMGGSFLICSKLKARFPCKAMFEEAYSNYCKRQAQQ

[2] = biological target: T1, protein kinases (human kinome) (Homo sapiens, UniProt Q14CZ7); conditions: Accession Q14CZ7, direction down
T1 sequence (Q14CZ7 1-662): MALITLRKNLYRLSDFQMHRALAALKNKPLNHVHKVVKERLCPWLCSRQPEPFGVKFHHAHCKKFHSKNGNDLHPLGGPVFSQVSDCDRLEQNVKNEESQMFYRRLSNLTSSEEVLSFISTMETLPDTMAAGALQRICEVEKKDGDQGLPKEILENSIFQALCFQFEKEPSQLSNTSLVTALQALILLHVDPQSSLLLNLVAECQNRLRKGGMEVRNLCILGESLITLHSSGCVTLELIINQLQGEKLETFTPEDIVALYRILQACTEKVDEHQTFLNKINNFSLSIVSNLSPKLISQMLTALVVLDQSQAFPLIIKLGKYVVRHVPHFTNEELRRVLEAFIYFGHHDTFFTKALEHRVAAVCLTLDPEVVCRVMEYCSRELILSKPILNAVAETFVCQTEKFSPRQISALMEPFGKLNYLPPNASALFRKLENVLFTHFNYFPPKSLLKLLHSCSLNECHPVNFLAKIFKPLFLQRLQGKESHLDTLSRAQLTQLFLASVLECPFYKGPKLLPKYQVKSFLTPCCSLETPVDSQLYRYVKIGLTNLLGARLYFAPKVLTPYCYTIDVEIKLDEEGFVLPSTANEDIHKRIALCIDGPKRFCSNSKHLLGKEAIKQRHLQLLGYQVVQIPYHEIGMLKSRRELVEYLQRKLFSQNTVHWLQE

[3] = biological target: protein kinases (human kinome) (Homo sapiens, UniProt P42684); conditions: for logFC: ABL2 (P42684) protein abundance, degrader vs DMSO, down
Sequence of protein kinases (human kinome) (Homo sapiens, UniProt P42684) (P42684 whole entry): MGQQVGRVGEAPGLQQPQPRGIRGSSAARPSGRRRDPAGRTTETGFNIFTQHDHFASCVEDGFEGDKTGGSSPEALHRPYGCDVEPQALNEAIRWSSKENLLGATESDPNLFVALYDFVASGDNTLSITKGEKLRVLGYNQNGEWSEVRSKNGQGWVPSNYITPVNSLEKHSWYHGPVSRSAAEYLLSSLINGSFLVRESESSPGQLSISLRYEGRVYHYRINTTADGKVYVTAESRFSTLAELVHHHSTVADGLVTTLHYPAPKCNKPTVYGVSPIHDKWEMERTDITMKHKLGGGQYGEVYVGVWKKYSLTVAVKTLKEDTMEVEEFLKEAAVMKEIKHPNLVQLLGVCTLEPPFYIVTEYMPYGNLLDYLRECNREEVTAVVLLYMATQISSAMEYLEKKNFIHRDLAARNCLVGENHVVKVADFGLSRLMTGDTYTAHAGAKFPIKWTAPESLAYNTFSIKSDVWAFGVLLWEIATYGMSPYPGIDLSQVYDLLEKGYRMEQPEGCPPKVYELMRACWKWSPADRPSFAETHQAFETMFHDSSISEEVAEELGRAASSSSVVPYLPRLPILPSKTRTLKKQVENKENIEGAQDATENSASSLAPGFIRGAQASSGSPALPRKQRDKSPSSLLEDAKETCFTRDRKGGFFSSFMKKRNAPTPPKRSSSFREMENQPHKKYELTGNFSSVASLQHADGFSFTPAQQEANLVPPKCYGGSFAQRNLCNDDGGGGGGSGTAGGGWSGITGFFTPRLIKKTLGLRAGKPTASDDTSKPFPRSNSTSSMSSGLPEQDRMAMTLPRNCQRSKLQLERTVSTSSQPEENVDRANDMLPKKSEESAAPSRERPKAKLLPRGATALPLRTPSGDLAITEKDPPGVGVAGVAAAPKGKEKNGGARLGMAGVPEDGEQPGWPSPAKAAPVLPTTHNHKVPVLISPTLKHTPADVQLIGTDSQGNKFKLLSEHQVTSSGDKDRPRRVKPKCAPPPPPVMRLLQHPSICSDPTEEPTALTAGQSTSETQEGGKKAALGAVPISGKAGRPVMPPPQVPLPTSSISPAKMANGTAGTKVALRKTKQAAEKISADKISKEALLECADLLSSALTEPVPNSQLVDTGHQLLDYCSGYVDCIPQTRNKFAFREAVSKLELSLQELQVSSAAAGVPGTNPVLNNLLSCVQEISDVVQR

[4] = biological target: T2, protein kinases (human kinome) (Homo sapiens, UniProt Q12851); conditions: for logFC MAP4K2 (Q12851): direction down; for logFC: MAP4K2 (Q12851)
T2 sequence (Q12851 1-820): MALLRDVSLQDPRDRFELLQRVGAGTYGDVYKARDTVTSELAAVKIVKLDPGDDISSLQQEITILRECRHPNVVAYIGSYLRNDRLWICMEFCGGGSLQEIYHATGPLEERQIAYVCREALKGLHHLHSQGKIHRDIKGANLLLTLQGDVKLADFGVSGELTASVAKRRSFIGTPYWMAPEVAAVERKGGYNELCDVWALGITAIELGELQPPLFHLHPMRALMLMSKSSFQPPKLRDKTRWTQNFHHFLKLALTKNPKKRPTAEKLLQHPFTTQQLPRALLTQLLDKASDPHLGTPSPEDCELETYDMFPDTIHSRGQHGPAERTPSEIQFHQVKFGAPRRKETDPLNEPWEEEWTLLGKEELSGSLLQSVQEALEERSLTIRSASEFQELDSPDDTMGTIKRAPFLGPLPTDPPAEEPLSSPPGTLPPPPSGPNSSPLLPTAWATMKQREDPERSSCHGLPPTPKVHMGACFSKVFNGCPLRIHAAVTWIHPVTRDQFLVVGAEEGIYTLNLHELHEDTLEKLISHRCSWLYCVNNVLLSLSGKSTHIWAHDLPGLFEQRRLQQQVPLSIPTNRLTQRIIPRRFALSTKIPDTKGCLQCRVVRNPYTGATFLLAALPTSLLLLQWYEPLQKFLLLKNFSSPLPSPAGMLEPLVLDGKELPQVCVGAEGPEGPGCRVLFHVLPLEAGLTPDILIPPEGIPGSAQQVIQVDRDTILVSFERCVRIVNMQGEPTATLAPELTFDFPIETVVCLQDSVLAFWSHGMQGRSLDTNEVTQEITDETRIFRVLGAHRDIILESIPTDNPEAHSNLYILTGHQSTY

[5] = biological target: protein kinases (human kinome) (Homo sapiens, UniProt Q07912); conditions: for logFC TNK2 (Q07912-1): direction down; for logFC TNK2: TNK2 (Q07912-1)
Sequence of protein kinases (human kinome) (Homo sapiens, UniProt Q07912) (Q07912 whole entry): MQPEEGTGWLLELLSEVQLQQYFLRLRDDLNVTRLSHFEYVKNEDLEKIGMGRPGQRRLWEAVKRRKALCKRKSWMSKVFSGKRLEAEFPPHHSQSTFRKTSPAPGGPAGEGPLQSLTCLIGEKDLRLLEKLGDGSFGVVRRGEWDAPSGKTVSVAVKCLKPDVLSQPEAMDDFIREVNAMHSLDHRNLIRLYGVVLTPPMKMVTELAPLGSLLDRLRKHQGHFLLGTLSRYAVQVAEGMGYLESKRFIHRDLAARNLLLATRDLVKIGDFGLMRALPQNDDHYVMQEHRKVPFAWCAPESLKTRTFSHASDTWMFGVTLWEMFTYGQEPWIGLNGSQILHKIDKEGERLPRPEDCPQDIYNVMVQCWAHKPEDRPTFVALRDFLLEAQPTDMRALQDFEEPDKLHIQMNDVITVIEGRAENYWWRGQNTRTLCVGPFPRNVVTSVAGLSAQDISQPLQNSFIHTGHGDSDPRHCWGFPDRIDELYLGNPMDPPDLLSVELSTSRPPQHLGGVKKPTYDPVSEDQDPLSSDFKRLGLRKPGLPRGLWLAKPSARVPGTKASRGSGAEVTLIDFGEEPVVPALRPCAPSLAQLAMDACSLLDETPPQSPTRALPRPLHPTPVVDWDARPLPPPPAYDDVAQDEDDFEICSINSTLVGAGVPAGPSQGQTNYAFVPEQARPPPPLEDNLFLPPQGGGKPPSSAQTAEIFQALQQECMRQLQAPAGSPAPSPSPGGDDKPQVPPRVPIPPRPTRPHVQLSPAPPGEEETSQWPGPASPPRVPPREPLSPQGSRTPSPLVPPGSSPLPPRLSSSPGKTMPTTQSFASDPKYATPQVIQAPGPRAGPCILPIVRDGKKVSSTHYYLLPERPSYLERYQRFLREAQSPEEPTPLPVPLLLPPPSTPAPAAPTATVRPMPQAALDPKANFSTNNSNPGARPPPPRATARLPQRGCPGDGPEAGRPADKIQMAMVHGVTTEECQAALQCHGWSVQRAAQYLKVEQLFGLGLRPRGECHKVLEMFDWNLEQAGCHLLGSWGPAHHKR

Structure (SMILES): CC(=O)c1c(C)c2cnc(Nc3ccc(N4CCN(CCOCCOCCOCCNC(=O)COc5cccc6c5C(=O)N(C5CCC(=O)NC5=O)C6=O)CC4)cn3)nc2n(C2CCCC2)c1=O (stereo not shown) [BSJ.03.123]
- logFC COQ8A (Q8N160-1) ([1]; experiment wp084): −0.4611
- logFC COQ8A (Q8NI60-1) ([1]; experiment wp084): −0.4611
- logFC FASTKD3 ([2]; experiment wp084): −0.4728

Structure (SMILES): Cc1ccc(NC(=O)c2cccc(C(F)(F)F)c2)cc1N1Cc2cnc(Nc3ccc(N4CCN(Cc5cn(CCCCCOc6cccc7c6C(=O)N(C6CCC(=O)NC6=O)C7=O)nn5)CC4)nc3)nc2N(C)C1=O (stereo not shown) [DB0646, N-(3-(7-((6-(4-((1-(5-((2-(2,6-Dioxopiperidin-3-yl)-1,3-dioxoisoindolin-4-yl)oxy)pentyl)-1H-1,2,3-triazol-4-yl)methyl)piperazin-1-v)pyridin-3-yl)amino)-1-methyl-2-oxo-1,4-dihydropyrimido[4,5-d]pyrimidin-3(2H)-yl)-4-methylphenyl)-3-(trifluoromethyl)benzamide]
- logFC ([3]; 4 hr): −0.5029
- logFC ([3]; 8 hr): −0.7288
- logFC [3]: −0.5941 and −0.5342 and −0.5362
- logFC ABL2 (P42684) ([3]; Experiment wp045): −0.5941
- logFC ABL2 (P42684) ([3]; Experiment wp107): −0.5342
- logFC ABL2 (P42684) ([3]; experiment wp152): −0.5362
- logFC ABL2 (P42684) ([3]; experiment wp160, 4 hr): −0.5029
- logFC ABL2 (P42684) ([3]; experiment wp160, 8 hr): −0.7288
- logFC MAP4K2 (Q12851) ([4]; Experiment wp045): −0.7569
- logFC MAP4K2 (Q12851) ([4]; Experiment wp103): −0.4625
- logFC MAP4K2 (Q12851) ([4]; Experiment wp107): −0.6245
- logFC MAP4K2 (Q12851) ([4]; Experiment wp117): −0.5616
- logFC MAP4K2 (Q12851) ([4]; Experiment wp152): −0.7981
- logFC MAP4K2 (Q12851) ([4]; Experiment wp160, 4 hr): −0.6132
- logFC MAP4K2 (Q12851) ([4]; Experiment wp160, 8 hr): −1.155
- logFC ([4]; experiment wp045): −0.7569
- logFC ([4]; experiment wp103): −0.4625
- logFC ([4]; experiment wp107): −0.6245
- logFC ([4]; experiment wp117): −0.5616
- logFC ([4]; experiment wp152): −0.7981
- logFC ([4]; experiment wp160, 4 hr): −0.6132
- logFC ([4]; experiment wp160, 8 hr): −1.155
- logFC FASTKD3 ([2]; experiment wp152): −0.3418

Structure (SMILES): Cc1ccc(NC(=O)c2cccc(C(F)(F)F)c2)cc1N1Cc2cnc(Nc3ccc(N4CCN(CCCOc5cccc6c5C(=O)N(C5CCC(=O)NC5=O)C6=O)CC4)nc3)nc2N(C)C1=O (stereo not shown) [DB0662]
- logFC [3]: −1.207
- logFC ABL2 (P42684) ([3]; Experiment wp168): −1.207
- logFC TNK2 (Q07912-1) ([5]; Experiment wp168): −0.6943
- logFC TNK2 ([5]; experiment wp168): −0.6943

Structure (SMILES): Cc1ccc(NC(=O)c2cccc(C(F)(F)F)c2)cc1N1Cc2cnc(Nc3ccc(N4CCN(CCCCCCOc5cccc6c5C(=O)N(C5CCC(=O)NC5=O)C6=O)CC4)nc3)nc2N(C)C1=O (stereo not shown) [DB0663]
- logFC [3]: −0.6022
- logFC ABL2 (P42684) ([3]; Experiment wp045): −0.6022
- logFC MAP4K2 (Q12851) ([4]; Experiment wp046): −0.3823
- logFC ([4]; experiment wp045): −0.3823

Structure (SMILES): Cc1ccc(NC(=O)c2cccc(C(F)(F)F)c2)cc1N1Cc2cnc(Nc3ccc(N4CCN(CCCCC(=O)N[C@H](C(=O)N5C[C@H](O)C[C@H]5C(=O)N[C@@H](C)c5ccc(-c6scnc6C)cc5)C(C)(C)C)CC4)nc3)nc2N(C)C1=O [DB1113]
- logFC [3]: −1.723
- logFC ABL2 (P42684) ([3]; Experiment wp168): −1.723
- logFC MAP4K2 (Q12851) ([4]; Experiment wp168): −2.432
- logFC ([4]; experiment wp168): −2.432
- logFC TNK2 (Q07912-1) ([5]; Experiment wp168): −0.5351
- logFC TNK2 ([5]; experiment wp168): −0.5351

Structure (SMILES): Cc1ncsc1-c1ccc([C@H](C)NC(=O)[C@@H]2C[C@@H](O)CN2C(=O)[C@@H](NC(=O)CCOCCOCCN2CCN(c3ccc(Nc4ncc(Cl)c(Nc5ccccc5S(=O)(=O)C(C)C)n4)cc3)CC2)C(C)(C)C)cc1 [FMF.06.098.1]
- logFC MAP4K2 (Q12851) ([4]; Experiment wp108): −0.5507
- logFC MAP4K2 (Q12851) ([4]; Experiment wp131): −0.6092
- logFC ([4]; experiment wp108): −0.5507
- logFC ([4]; experiment wp131): −0.6092
- logFC TNK2 (Q07912-1) ([5]; Experiment wp108): −0.5108
- logFC TNK2 (Q07912-1) ([5]; Experiment wp131): −0.5805
- logFC TNK2 ([5]; experiment wp108): −0.5108
- logFC TNK2 ([5]; experiment wp131): −0.5805

Structure (SMILES): Cc1cnc(Nc2ccc(N3CCN(CCOCCOCCNC(=O)COc4cccc5c4C(=O)N(C4CCC(=O)NC4=O)C5=O)CC3)cc2)nc1Nc1cccc(S(=O)(=O)NC(C)(C)C)c1 (stereo not shown) [JWG.118]
- logFC FASTKD3 ([2]; experiment wp071): −0.4386

Structure (SMILES): Nc1ncnc2c1c(-c1ccc(Oc3ccccc3)cc1)nn2[C@H]1CC[C@H](N2CCN(CCOCCNC(=O)CNc3cccc4c3C(=O)N(C3CCC(=O)NC3=O)C4=O)CC2)CC1 (stereo partly shown) [SB1.G.181]
- logFC [3]: −2.405
- logFC ABL2 (P42684) ([3]; experiment wp071): −2.405

Structure (SMILES): Cc1ccc(C(=O)Nc2ccc(CN3CCN(CCCOCCOCCOCCNC(=O)COc4cccc5c4C(=O)N(C4CCC(=O)NC4=O)C5=O)CC3)c(C(F)(F)F)c2)cc1C#Cc1cnc2cccnn12 (stereo not shown) [SB1.G.187]
- logFC [3]: −0.6252 and −0.6455
- logFC ABL2 (P42684) ([3]; Experiment wp107): −0.6455
- logFC ABL2 (P42684) ([3]; experiment wp056): −0.6252
- logFC MAP4K2 (Q12851) ([4]; Experiment wp056): −1.847
- logFC MAP4K2 (Q12851) ([4]; Experiment wp103): −1.79
- logFC MAP4K2 (Q12851) ([4]; Experiment wp105): −1.757
- logFC MAP4K2 (Q12851) ([4]; Experiment wp107): −2.048
- logFC MAP4K2 (Q12851) ([4]; Experiment wp114): −0.7516
- logFC ([4]; experiment wp056): −1.847
- logFC ([4]; experiment wp103): −1.79
- logFC ([4]; experiment wp105): −1.757
- logFC ([4]; experiment wp107): −2.048
- logFC ([4]; experiment wp114): −0.7516
- logFC COQ8A (Q8N160-1) ([1]; experiment wp056): −0.3885
- logFC COQ8A (Q8NI60-1) ([1]; experiment wp056): −0.3885

Structure (SMILES): CC(C)S(=O)(=O)c1ccccc1Nc1nc(Nc2ccc(N3CCN(CCOCCNC(=O)CNc4ccc5c(c4)C(=O)N(C4CCC(=O)NC4=O)C5=O)CC3)cc2)ncc1Cl (stereo not shown) [SK.3.93]
- logFC [3]: −0.5278
- logFC ABL2 (P42684) ([3]; experiment wp016): −0.5278

Structure (SMILES): CC(C)S(=O)(=O)c1ccccc1Nc1nc(Nc2ccc(N3CCN(CCOCCOCCC(=O)NCCNc4cccc5c4CN(C4CCC(=O)NC4=O)C5=O)CC3)cc2)ncc1Cl (stereo not shown) [TL13.97]
- logFC [3]: −0.5116
- logFC ABL2 (P42684) ([3]; experiment wp137): −0.5116
- logFC TNK2 (Q07912-1) ([5]; Experiment wp137): −1.971
- logFC TNK2 ([5]; experiment wp137): −1.971

Structure (SMILES): Cc1ccc(C(=O)Nc2ccc(CN3CCN(CCOCCOCCNC(=O)CNc4cccc5c4C(=O)N(C4CCC(=O)NC4=O)C5=O)CC3)c(C(F)(F)F)c2)cc1C#Cc1cnc2cccnn12 (stereo not shown) [TL13.150]
- logFC MAP4K2 (Q12851) ([4]; Experiment wp081): −1.088
- logFC ([4]; experiment wp081): −1.088

Structure (SMILES): C=CCn1c(=O)c2cnc(Nc3ccc(N4CCN(CCCNc5cccc6c5C(=O)N(C5CCC(=O)NC5=O)C6=O)CC4)cc3)nc2n1-c1cccc(C(C)(C)O)n1 (stereo not shown) [ZNL.02.096]
- logFC COQ8A (Q8N160-1) ([1]; experiment wp056): −0.4317
- logFC COQ8A (Q8NI60-1) ([1]; experiment wp056): −0.4317
- logFC COQ8A (Q8N160-1) ([1]; experiment wp118): −0.423
- logFC COQ8A (Q8NI60-1) ([1]; experiment wp118): −0.423
- logFC FASTKD3 ([2]; experiment wp056): −0.7131
